Bridge positions count the residues as written; N and C are the ends. Peptide text beside a SMILES is read from it.
Experiments:
[1] = system: S. aureus 502a; test: Cell-suspension microbicidal assay (MMC); format: cell-based, Staphylococcus aureus; details: for MMC, S. aureus: lowest concentration that reduced cell viability by 99.9%, 10 mM PIPES, 5 mM glucose, pH 7.4, 2 h 37° C.
Description: (§1) To test microbicidal activities, the activities of each peptide against S. aureus 502a, E. coli ML35, and C. albicans 16820 were assessed essentially as described in Example I with modifications to allow for simultaneous analysis of all twenty peptides. Briefly, two-fold serial dilutions of each peptide (in 0.01% acetic acid 0.062-8.0 μg/ml final concentrations) were mixed with 10 mM PIPES, pH 7.4, containing 5 mM glucose in sterile polystyrene 96-well plates (Corning, N.Y.). Aliquots of log-phase bacteria or yeast were added to a 2×10^6 CFU/ml final density as determined by A620. After 2 h incubation at 37° C., 15 μl of the incubation mixture was removed and serially diluted ten-fold from 1:10 to 1:10^6 in trypticase soy broth (bacteria) or Sabaraud dextrose broth (C. albicans). The diluted cell suspensions were grown 24-48 h at 37° C. until cell pellets were visible. Microbicidal activity was determined as absence of growth and was correlated to CFU/ml in control experiments where activity was determined in parallel by colony counting (see Example I). Absence of growth at the 1:10^3 dilution is equivalent to a 3-log reduction in microbial viability.
(§2) The microbicidal activities of each peptide against E. coli ML35, S. aureus 502a, and C. albicans 16820 were determined with cell-suspension microbicidal assays in 96-well plates (see Example II). Briefly, log-phase cells (2×10^6 CFU/ml final) were incubated with increasing concentrations of peptides (0-8 μg/ml final) in 50 μl of 10 mM PIPES, 5 mM glucose, pH 7.4, for 2 h at 37° C. Incubation mixtures were diluted 1:10 to 1:10^6 with trypticase-soy broth (bacteria) or Sabaraud dextrose broth (fungi) and incubated at 37° C. for 24-48 h until cell pellets were visible. Microbicidal activities (confirmed in control experiments as described in Example II) were determined as the absence of a cell pellet in the various dilutions. Peptide concentrations that caused ≧99.9% killing (absence of a cell pellet at 1:10^3 dilution) were taken as the minimum microbicidal concentrations (MMC).

[2] = system: E. coli ML35; test: Cell-suspension microbicidal assay (MMC); format: cell-based, Escherichia coli; details: for MMC, E. coli: lowest concentration that reduced cell viability by 99.9%, 10 mM PIPES, 5 mM glucose, pH 7.4, 2 h 37° C.
Description: as §1, §2

[3] = system: C. albicans 16820; test: Cell-suspension microbicidal assay (MMC); format: cell-based, Candida albicans; details: for MMC, C. albicans: lowest concentration that reduced cell viability by 99.9%, 10 mM PIPES, 5 mM glucose, pH 7.4, 2 h 37° C.; for fold lower candidacidal potency than native PG-1: from MMC, Table 2
Description: as §1, §2

[4] = system: S. aureus 502a, E. coli ML35, and C. albicans 16820; test: Cell-suspension microbicidal assay, statements across the test organisms (lowest MMC, overall ranges); format: cell-based; details: peptide concentration that kill 99.9% of either S. aureus, E. coli, or C. albicans; lowest MMC value
Description: as §1, §2
(§3) A selectivity index (SI=H/M) was calculated as a ratio of a peptide concentration (μg/ml) that causes 3% hemolysis (H) obtained from a dose-dependent hemolysis plot over 0.3 to 3 μg/ml of each peptide in PBS and the lowest MMC value (M) for any of the three test microorganisms (see Example II; Table 2).

[5] = system: E. coli ML35; test: Membrane permeabilization assay (ONPG hydrolysis); format: cell-based, Escherichia coli; details: rates at 1 μg/ml concentration of each peptide
Description: For the membrane permeabilization assay, the permeabilization of bacterial cytoplasmic membranes was determined by measuring hydrolysis of o-nitrophenyl-β-D-galactcpyranoside (ONPG) in E. coli ML35 (Sitaram et al., FEBS Lett. 303:265-268 (1992); Lehrer et al.,. J. Immunol. Methods 108:153-158 (1988)). Peptides dissolved in 5 μl of 0.01% acetic acid were two-fold serially diluted with 10 mM PIPES, pH 7.4, containing 3 mM ONPG, to final peptide concentrations of 0-8.0 μg/ml. Log-phase bacteria, prepared in PIPES buffer as described for the microbicidal assay (see Example I), were added to 1×10^6 CFU/ml final density in a final volume of 90 μl. ONPG hydrolysis was measured at 405 nm for 60 min using a SpectraMAX 190 plate reader and SOFTmaxPRO 3.1 (Molecular Devices Corp., CA). […]

[6] = system: human erythrocytes; test: Hemolysis assay; format: cell-based
Description: For the hemolysis assay, the hemolytic activity of each peptide was determined by the method of Tam et al. (Tam et al., Eur. J. Biochem. 267:3289-3300 (2000)). Blood was obtained from a healthy donor in accordance to a protocol approved by the Institutional Review Board. Normal human serum was prepared from the same individual and stored at −20° C. Red blood cells (RBC) were prepared from blood collected in EDTA. RBC were harvested at 234×g for 10 min, 22° C., washed four times with 10 mM sodium phosphate, 150 mM NaCl, pH 7.4 (PBS), containing 4 mM EDTA and resuspended in PBS without EDTA. Peptides dissolved in 10 μl 0.01% HOAc were diluted with PBS to final concentrations of 0.3-100 μg/ml. RBC were added to a 2% final density in 100 μl. Incubation mixtures were also prepared with 10% serum. After 1 h incubation at 37° C., the cell suspensions were centrifuged at 234×g for 10 min, 22° C. Fifty-μl samples of the supernatants were removed, and the absorbance at 405 nm (A) was measured. Hemolytic activity of each peptide was calculated relative to lysis by 1% NP-40 using the following formula:
as §3

[7] = carboxamide versus C-terminal acid of the same acyclic θ-defensin

Row | SMILES | MMC, S. aureus [1] [µg/mL] | MMC, E. coli [2] [µg/mL] | MMC, C. albicans [3] [µg/mL] | M [4] [µg/mL] | ONPG hydrolysis [5] | fold reduction of staphylocidal potency relative to the peptide acid analog [1, 7] | fold higher potency against E. coli than the peptide acid analog [2, 7] [fold] | fold higher potency against C. albicans than the peptide acid analog [3, 7] [fold] | H ([6]; peptide concentration that causes 3% hemolysis, calculated from dose-dependent hemolysis plot over 0.3-3 μg/ml in PBS) [µg/mL] | fold lower candidacidal potency than native PG-1 [3] [fold] | hemolysis [6] | fold lower staphylocidal potency than native PG-1 ([1]; from MMC, Table 2) [fold]
1 | CC(C)C[C@H](NC(=O)[C@H](CCCNC(=N)N)NC(=O)CNC(=O)CN)C(=O)N[C@H]1CSSC[C@@H](C(=O)N[C@H](C(=O)NCC(=O)N[C@@H](CCCNC(=N)N)C(=O)N[C@@H](CCCNC(=N)N)C(=O)O)C(C)C)NC(=O)[C@H](C(C)C)NC(=O)[C@@H]2CSSC[C@H](NC(=O)[C@H](Cc3ccc(O)cc3)NC1=O)C(=O)N[C@@H](CCCNC(=N)N)C(=O)N[C@@H](CCCNC(=N)N)C(=O)N[C@@H](CCCNC(=N)N)C(=O)N[C@@H](Cc1ccccc1)C(=O)N2 [4:4 PG-1-OH] (H-GGRLCYCRRRFCVCVGRR-OH; disulfide 5-14, 7-12; N-terminus assumed) | 1.0 | 1.0 | 2.5 | 1 | 12.1 (A405/sec) · 10^−5 |  |  |  |  |  |  | 
2 | CC[C@H](C)[C@@H]1NC(=O)[C@@H]2CSSC[C@H](NC(=O)[C@H](CCCNC(=N)N)NC(=O)[C@@H](NC(=O)[C@H](Cc3ccccc3)NC(=O)CN)CSSC[C@@H](C(=O)N[C@H](C(=O)N[C@@H](CCCNC(=N)N)C(N)=O)[C@@H](C)O)NC1=O)C(=O)N[C@@H](CC(C)C)C(=O)N[C@H]1CSSC[C@H](NC(=O)[C@H](C(C)C)NC(=O)CNC(=O)[C@H](CCCNC(=N)N)NC(=O)[C@H](CCCNC(=N)N)NC1=O)C(=O)N[C@@H](CCCNC(=N)N)C(=O)N2 [aRTD-1-NH] (H-GFCRCLCRRGVCRCICTR-NH2; disulfide 3-16, 5-14, 7-12; N-terminus assumed) | 5.0 | 2.0 | 1.0 | 1 | 8.8 (A405/sec) · 10^−5 | no effect | 4 | 4 | 8.8 |  |  | 
3 | CC(C)[C@@H]1NC(=O)[C@@H]2CSSC[C@H](NC(=O)[C@H](CCCNC(=N)N)NC(=O)[C@@H]3CSSC[C@H](NC1=O)C(=O)N[C@@H](CCCNC(=N)N)C(=O)N[C@@H](CCCNC(=N)N)C(=O)NCC(=O)NCC(=O)N3)C(=O)N[C@@H](Cc1ccc(O)cc1)C(=O)N[C@H]1CSSC[C@H](NC(=O)[C@H](Cc3ccccc3)NC(=O)[C@H](CCCNC(=N)N)NC(=O)[C@H](CCCNC(=N)N)NC(=O)[C@H](CCCNC(=N)N)NC1=O)C(=O)N[C@@H](C(C)C)C(=O)N2 [3cys cPG-1] (cyclo(GGCRCYCRRRFCVCVCRR); disulfide 3-16, 5-14, 7-12) | 0.5 | 1.3 | 2.5 | 0.5 | 10.7 (A405/sec) · 10^−5 |  |  |  |  | 3 | 5-6% | 
4 | CC(C)C[C@@H]1NC(=O)[C@H](CCCNC(=N)N)NC(=O)CNC(=O)CNC(=O)[C@H](CCCNC(=N)N)NC(=O)[C@H](CCCNC(=N)N)NC(=O)CNC(=O)[C@H](C(C)C)NC(=O)[C@@H]2CSSC[C@H](NC1=O)C(=O)N[C@@H](Cc1ccc(O)cc1)C(=O)N[C@H]1CSSC[C@H](NC(=O)[C@H](Cc3ccccc3)NC(=O)[C@H](CCCNC(=N)N)NC(=O)[C@H](CCCNC(=N)N)NC(=O)[C@H](CCCNC(=N)N)NC1=O)C(=O)N[C@@H](C(C)C)C(=O)N2 [cPG-1] (cyclo(GGRLCYCRRRFCVCVGRR); disulfide 5-14, 7-12) | 2.0 | 1.0 | 2.5 | 1 | 11.0 (A405/sec) · 10^−5 |  |  |  |  | 3 | 40-50% | 5

From patent publication US7462598B2, “Antimicrobial theta defensins, analogs thereof, and methods of use” (priority 2002, dated 2008)
